Laboratory results published in ChEMBL document CHEMBL4325859, “Research advances on anticancer activities of matrine and its derivatives: An updated overview” (Eur J Med Chem, 2019).
In brackets after ≈: the same amount, converted by molar mass.

Key:
[1] = tested on: A549; experiment: Antiproliferative activity against human A549 cells at 1.5 g/L after 12 to 48 hrs by MTT assay relative to control; assay type: functional
[2] = tested on: A549; experiment: Antiproliferative activity against human A549 cells at 1 mg/ml relative to control; assay type: functional
[3] = tested on: 4T1; experiment: Antiproliferative activity against mouse 4T1 cells after 48 hrs by MTT assay; assay type: functional, cell-based; conditions: 4T1, 48 h
[4] = tested on: HepG2; experiment: Antiproliferative activity against human HepG2 cells after 48 hrs by MTT assay; assay type: functional, cell-based; conditions: HepG2, 48 h
[5] = tested on: SMMC-7721; experiment: Antiproliferative activity against human SMMC7721 cells at 100 ug/ml after 72 hrs by MTT assay relative to control; assay type: functional
[6] = tested on: SGC-7901; experiment: Induction of apoptosis in human SGC7901 cells at 60 mg/ml after 48 hrs by propidium iodide staining based flow cytometry (reference value: 3.54 +/- 0.47%); assay type: functional
[7] = tested on: BXPC-3; experiment: Induction of apoptosis in human BxPC3 cells at 0.75 mg/ml by flow cytometry (reference value: 2.81%); assay type: functional
[8] = tested on: BXPC-3; experiment: Induction of apoptosis in human BxPC3 cells at 1.25 mg/ml by flow cytometry (reference value: 2.81%); assay type: functional
[9] = tested on: PANC-1; experiment: Induction of apoptosis in human PANC1 cells at 0.75 mg/ml by flow cytometry (reference value: 4.13%); assay type: functional
[10] = tested on: PANC-1; experiment: Induction of apoptosis in human PANC1 cells at 1.25 mg/ml by flow cytometry (reference value: 4.13%); assay type: functional
[11] = tested on: DU-145; experiment: Growth inhibition of human DU145 cells at 6 g/L after 72 hrs relative to control; assay type: functional; conditions: DU-145, 72 h, read-out: GI
[12] = tested on: CCRF-CEM; experiment: Antiproliferative activity against human CCRF-CEM cells after 24 hrs by WST1 assay; assay type: functional, cell-based
[13] = tested on: CCRF-CEM; experiment: Antiproliferative activity against human CCRF-CEM cells after 72 hrs by WST1 assay; assay type: functional, cell-based
[14] = tested on: NB-4; experiment: Antiproliferative activity against human NB4 cells after 24 hrs by MTT assay; assay type: functional, cell-based; conditions: NB-4, 24 h
[15] = tested on: HL-60; experiment: Induction of apoptosis in human HL60 cells after 24 hrs by Annexin V-FITC/propidium iodide staining based flow cytometry relative to control; assay type: functional
[16] = tested on: U-937; experiment: Induction of apoptosis in human U937 cells after 24 hrs by Annexin V-FITC/propidium iodide staining based flow cytometry relative to control; assay type: functional
[17] = tested on: U-266; experiment: Antiproliferative activity against human U266 cells after 24 hrs by MTT assay; assay type: functional, cell-based; conditions: U-266, 24 h
[18] = tested on: RPMI-8226; experiment: Antiproliferative activity against human RPMI8226 cells after 48 hrs by MTT assay; assay type: functional, cell-based; conditions: RPMI-8226, 48 h
[19] = tested on: RD; experiment: Induction of apoptosis in human RD cells at 0.5 mg/ml after 24 hrs by Annexin V-FITC/propidium iodide staining based flow cytometry relative to control; assay type: functional
[20] = tested on: RD; experiment: Induction of apoptosis in human RD cells at 1.5 mg/ml after 24 hrs by Annexin V-FITC/propidium iodide staining based flow cytometry relative to control; assay type: functional
[21] = tested on: 5637; experiment: Antiproliferative activity against human 5637 cells after 48 hrs by CCK8 assay; assay type: functional, cell-based; conditions: Homo sapiens, 5637, 48 h
[22] = tested on: KYSE-150 cell line; experiment: Antiproliferative activity against human KYSE-150 cells assessed as cell viability at 2.5 mg/ml after 24 hrs by MTT assay relative to control; assay type: functional; conditions: KYSE-150, 24 h, read-out: Activity
[23] = tested on: HT-29; experiment: Growth inhibition of human HT-29 cells at 4 ml/L after 48 hrs by MTT assay relative to control; assay type: functional
[24] = tested on: HT-29; experiment: Synergistic growth inhibition of human HT-29 cells at 0.25 mg/ml cotreated with 1.25 ug/ml irinotecan by MTT assay relative to control; assay type: functional
[25] = Antiproliferative activity against human GBC-SD cells assessed as cell survival at 1 mmol/L up to 72 hrs by MTT assay (reference value: 100%); assay type: functional; conditions: read-out: Survival
[26] = Antiproliferative activity against human GBC-SD cells after 48 hrs by MTT assay; assay type: functional, cell-based
[27] = tested on: SAOS-2; experiment: Growth inhibition of human Saos2 cells after 48 hrs by MTT assay; assay type: functional, cell-based; conditions: SAOS-2, 48 h
[28] = tested on: HOS; experiment: Growth inhibition of human HOS cells at 0.8 mg/ml after 48 hrs by MTT assay relative to control; assay type: functional; conditions: read-out: GI
[29] = tested on: U2OS; experiment: Growth inhibition of human U2OS cells at 0.8 mg/ml after 48 hrs by MTT assay relative to control; assay type: functional; conditions: read-out: GI
[30] = tested on: HOS; experiment: Growth inhibition of human HOS cells at 3.2 mg/ml after 48 hrs by MTT assay relative to control; assay type: functional; conditions: read-out: GI
[31] = tested on: SAOS-2; experiment: Growth inhibition of human Saos2 cells at 3.2 mg/ml after 48 hrs by MTT assay relative to control; assay type: functional; conditions: SAOS-2, 48 h, read-out: GI
[32] = tested on: UMR108; experiment: Growth inhibition of rat UMR108 cells assessed as cell proliferation at 0.5 mg/ml after 48 hrs by MTT assay (reference value: 0.404 +/- 0.008%); assay type: functional; conditions: UMR108, 48 h, read-out: Activity
[33] = tested on: UMR108; experiment: Growth inhibition of rat UMR108 cells assessed as cell proliferation at 1 mg/ml after 48 hrs by MTT assay (reference value: 0.404 +/- 0.008%); assay type: functional; conditions: UMR108, 48 h, read-out: Activity
[34] = Growth inhibition of human GRC1 cells at 0.5 g/L after 24 hrs by MTT assay relative to control; assay type: functional; conditions: read-out: GI
[35] = Growth inhibition of human GRC1 cells at 0.3 g/L after 48 hrs by MTT assay relative to control; assay type: functional; conditions: read-out: GI
[36] = Growth inhibition of human GRC1 cells at 1 g/L after 72 hrs by MTT assay relative to control; assay type: functional; conditions: read-out: GI
[37] = Growth inhibition of human GRC1 cells at 0.3 g/L after 96 hrs by MTT assay relative to control; assay type: functional; conditions: read-out: GI
[38] = tested on: D341 cell line; experiment: Growth inhibition of human D341 cells at 2 mg/ml after 24 hrs by CCK8 assay relative to control; assay type: functional; conditions: D341, 24 h, read-out: GI
[39] = tested on: D341 cell line; experiment: Growth inhibition of human D341 cells at 2 mg/ml after 48 hrs by CCK8 assay relative to control; assay type: functional; conditions: D341, 48 h, read-out: GI
[40] = tested on: HT-29; experiment: Growth inhibition of human HT-29 cells at 32 mg/ml after 48 hrs by MTT assay relative to control; assay type: functional; conditions: HT-29, 48 h, read-out: GI
[41] = tested on: HeLa; experiment: Induction of apoptosis in human HeLa cells at 50 ug/ml after 48 hrs by Annexin V-FITC/propidium iodide staining based flow cytometry relative to control; assay type: functional
[42] = tested on: HeLa; experiment: Induction of apoptosis in human HeLa cells at 100 ug/ml after 48 hrs by Annexin V-FITC/propidium iodide staining based flow cytometry relative to control; assay type: functional
[43] = tested on: C-33-A; experiment: Induction of apoptosis in human C33A cells at 50 ug/ml after 48 hrs by Annexin V-FITC/propidium iodide staining based flow cytometry relative to control; assay type: functional
[44] = tested on: SiHa; experiment: Antiproliferative activity against human SiHa cells after 48 hrs by CCK8 assay; assay type: functional, cell-based

Q: What does the source list for `O=C1CCC[C@@H]2[C@H]3CCCN4CCC[C@@H](CN12)[C@@H]34` [MATRINE]?
A: Activity [1]: 30%; Activity [2]: 52.68%; IC50 [3]: 1110 µg/mL (≈ 4.47 mM); IC50 [4]: 3.22 mM; Activity [5]: 55.1%; Activity [6]: 22.34%; Activity [7]: 48.83%; Activity [8]: 33.67%; Activity [9]: 24.56%; Activity [10]: 42.55%; inhibition of growth at 6000 µg/mL [11]: 90%; IC50 [12]: 11.7 mM; IC50 [13]: 9.63 mM; IC50 [14]: 2660 nM; Activity [15]: 41.1%; Activity [16]: 37.2%; IC50 [17]: 2180 µg/mL (≈ 8.78 mM); IC50 [18]: 1640 µg/mL (≈ 6.6 mM); Activity [19]: 22.8%; Activity [20]: 40.1%; IC50 [21]: 4.48 mM; viability at 2500 µg/mL [22]: 40.4%; growth inhibition (GI) [23]: 54.22%; growth inhibition (GI) [24]: 31.08%; viability at 1000 µM [25]: 72.1%; IC50 [26]: 2 mM; IC50 [27]: 4.27 mM; inhibition of growth at 800 µg/mL [28]: 10%; inhibition of growth at 800 µg/mL [29]: 10%; inhibition of growth at 3200 µg/mL [30]: 57%; inhibition of growth at 3200 µg/mL [31]: 70%; growth at 500 µg/mL [32]: 0.313%; growth at 1000 µg/mL [33]: 0.249%; inhibition of growth at 500 µg/mL [34]: 11.5%; inhibition of growth at 300 µg/mL [35]: 8.8%; inhibition of growth at 1000 µg/mL [36]: 29.2%; inhibition of growth at 300 µg/mL [37]: 18.4%; inhibition of growth at 2000 µg/mL [38]: 38%; inhibition of growth at 2000 µg/mL [39]: 47.2%; inhibition of growth at 32000 µg/mL [40]: 84.2%; Activity [41]: 19.53%; Activity [42]: 38.41%; Activity [43]: 15.37%; IC50 [44]: 5.76 mM
